One may read the EC50 as the concentration at which the effect is half-maximal.

The test system of test [1] is Wnt pathway (Sp5-Luc reporter, TCF/LEF binding sites) in SW480 colon carcinoma cells. The experiment in a line: Screening assay for Wnt activity: Sp5-Luc reporter gene assay.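 Further: firefly luciferase luminescence read in stably transduced SW480 cells carrying the Sp5 promoter reporter with eight TCF/LEF sites, compounds given in 0.1% DMSO final.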 In kind it is cell-based, human. Particulars: Homo sapiens; Sp5-Luc reporter, SW480 cells, 36 to 48 hours. A general note: In a reporter assay the amount or activity of a reporter protein is the signal.
Procedure: The screening assay for Wnt activity is described as follows.
Following incubation, 15 μl of BriteLite Plus luminescence reagent (Perkin Elmer) was added to each well of the 384-well assay plates. The plates were placed on an orbital shaker for 2 min and then luminescence was quantified using the Envision (Perkin Elmer) plate reader.

Test [2] addresses recombinant DYRK1A kinase (Homo sapiens (Human), UniProt Q13627). As to the kind of experiment: DYRK1A kinase assay (Ser/Thr 18 peptide Z-lyte FRET).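 Further: Read-out is the coumarin to fluorescein emission ratio, referenced to unphosphorylated (0%) and phosphorylated (100%) Ser/Thr 18 peptide controls, values from dose-response curves by non-linear regression.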 It is filed as biochemical. Particulars: 30 μM ATP, 1 h room temperature.
The next test addresses recombinant GSK3β kinase (Homo sapiens (Human), UniProt P49841). The experiment in a line: GSK3β kinase assay (Ser/Thr 09 peptide Z-lyte FRET).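 Further: kinase activity read as coumarin to fluorescein emission ratio, 11-point threefold dilutions from 10 µM to 0.0003 µM in duplicate, unphosphorylated and phosphorylated peptide as 0% and 100% controls.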 In kind it is biochemical. Particulars: 46 μM ATP, 1 h room temperature.
Test [3] has as its system Tau phosphorylation at Ser396 (pSer396). The experiment in a line: Tau phosphorylation assay (pSer396 ELISA / western blot) in SH-SY5Y cells.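 Further: EC50 for reduction of Tau pSer396 in lysed cells, measured by colorimetric ELISA or chemiluminescent western blot, both using the same pSer396 antibody.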 In kind it is cell-based, human. Particulars: Homo sapiens; SH-SY5Y cells, overnight (16-18 h) exposure; read-out: pSer396 Tau EC50.
For test [4], the system named is SW480 colon carcinoma cells. As to the kind of experiment: Cell viability assay (CellTiter-Glo). Particulars: Homo sapiens; for EC50: 96 h, SW480 cells, CellTiter-Glo, four days incubation. In kind it is cell-based, human. In general terms: ATP-based viability assays read luminescence as a measure of living cells.
Test [5] deals with α-smooth muscle actin (αSMA) positive LL29 cells. As to the kind of experiment: Inhibition of fibrotic process: αSMA in TGF-β1 treated primary human fibroblasts from IPF patients.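 On all read-outs here: controls were TGF-β1 stimulated wells with DMSO vehicle (positive) and cells given DMSO alone (negative), cultured in F12 medium with 1% fetal bovine serum.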 It is filed as cell-based. Particulars: Homo sapiens, Fibroblast; for EC50: 96 h, Table 8, LL29 fibroblasts from IPF patients, TGF-β1 20 ng/mL, 4 days, dose-response 10 μM to 0.94 nM.
In test [6] the test system is IL-6. As to the kind of experiment: IL-6 inhibition in LPS-stimulated human peripheral blood mononuclear cells (HTRF).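 On all read-outs here: IL-6 detected by HTRF with an XL665- and Cryptate-labelled anti-IL-6 antibody pair, samples run in duplicate, EC50 obtained from a four-parameter Levenberg-Marquardt curve fit.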 In kind it is cell-based. Particulars: Homo sapiens, PBMC; for EC50: Table 9, huPBMCs, LPS 50 ng/mL, 22 hours, dose-response starting from 10 μM. (In general: In TR-FRET formats the signal depends on donor and acceptor labels being close together.)
Procedure: After 22 hour incubation, a mixture of anti-IL6 XL665 and anti-IL-6 Cryptate diluted in reconstitution buffer (Catalog #62IL6PEC, Cisbio Inc., Bedford, Mass.) was added to each well. […] All samples were processed in duplicate. […] EC50 was determined using software generated by Dotmatics Limited (Windhill Bishops Stortford Herts, UK) using the Levenberg-Marquardt 4 parameter fitting procedure with finite different gradients.
The subject of another test is TNFα. As to the kind of experiment: Secreted cytokines in lipopolysaccharide-stimulated BV-2 mouse microglial cells: TNFα. In kind it is cell-based. Particulars: BV-2 cells, compounds overnight, LPS 250 ng/mL 5 h. On the procedure:
(§1) Representative compounds were screened using the cell-based assay procedure for secreted cytokines in a Lipopolysaccharide-stimulated mouse glial cell line described below.
(§2) BV-2 cells (mouse microglial cells) were cultured in 1:1 DMEM medium supplemented with 10% FBS, and 1% penicillin/streptomycin.
(§3) BV-2 cells are plated at 35,000 cells/well in a volume of 100 ul for at least 4 hours before compounds are added. DMSO-resuspended compounds were first dispensed in a 96 well plate and serial diluted from 10 μM to 4.6 nM final concentration in medium. Compounds were added to cells overnight. Two hundred fifty ng per milliliter of lipopolysaccharide (Escherichia coli O55:B5, SIGMA) was added for 5 h. Supernatant is removed and saved for further cytokine detection. The original plates with seeded cells were tested for cytotoxicity by measure of adenosine triphosphate (ATP) release by adding CellTiter-Glo® diluted 1:4 in distilled water (G7573, Promega) and transferring lysed cells to a completely black 96-well plate to be read with the Cytation3. Supernatant was then diluted 1:2 with a diluent from V-PLEX cytokine Kit and directly tested for the secreted cytokines TNFα, IL-6 and KC-GRO using electrochemiluminescence (Meso Scale Discovery). The standard curve for each cytokine was used to convert the electrochemiluminescent signal into pg of protein per mL.

The test system of test [7] is IL-6. As to the kind of experiment: Secreted cytokines in lipopolysaccharide-stimulated BV-2 mouse microglial cells: IL-6. Particulars: Mus musculus; BV-2 cells, compounds overnight, LPS 250 ng/mL 5 h. It is filed as cell-based. Here is the method:
as §1, §2, §3

Another test has as its system KC-GRO. The experiment in a line: Secreted cytokines in lipopolysaccharide-stimulated BV-2 mouse microglial cells: KC-GRO. In kind it is cell-based. Particulars: BV-2 cells, compounds overnight, LPS 250 ng/mL 5 h. On the procedure: as §1, §2, §3
The mark [8] stands for this setting: read-out: percent value in parentheses beside EC50 >10 μM.

Some results are limits rather than exact numbers.

Chain of recombinant GSK3β kinase (P49841 whole entry): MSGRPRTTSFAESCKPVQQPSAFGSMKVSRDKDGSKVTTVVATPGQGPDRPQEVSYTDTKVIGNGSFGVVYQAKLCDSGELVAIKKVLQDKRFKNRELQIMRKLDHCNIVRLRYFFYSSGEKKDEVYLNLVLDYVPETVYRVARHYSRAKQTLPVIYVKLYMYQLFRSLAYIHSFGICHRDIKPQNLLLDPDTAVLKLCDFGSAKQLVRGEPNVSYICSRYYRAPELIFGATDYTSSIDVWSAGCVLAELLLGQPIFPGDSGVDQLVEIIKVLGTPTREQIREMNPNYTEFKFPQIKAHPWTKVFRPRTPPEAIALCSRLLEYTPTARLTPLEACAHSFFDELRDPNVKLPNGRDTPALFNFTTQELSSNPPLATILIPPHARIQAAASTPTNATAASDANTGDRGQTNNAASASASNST

On to `CN1CCN(CC(=O)Nc2cc3cc(-c4cn(C)nn4)ccc3cn2)CC1` [Compound 500, N-(6-(1-Methyl-1H-1,2,3-triazol-4-yl)isoquinolin-3-yl)-2-(4-methylpiperazin-1-yl)acetamide], for which the EC50 in test [1] is 3230 nM; in [2], 10.6 nM; at recombinant GSK3β kinase it was 23 nM; in test [3], 388 nM; in test [4], above 10000 nM; in test [5], 675 nM. In addition, the concentration giving a half-maximal response (EC50) was above 10000 nM in the test with IL-6 [6], 1200 nM with TNFα, 34 nM in the test with IL-6 [7] and 7 nM in the test on KC-GRO. Further, the inhibition at 10 µM in test [4] (SW480, read-out: percent inhibition at 10 μM) was 25.1%; with IL-6 [6] (setting [8]), 4%.

As to `CN1CCC(C(=O)Nc2cc3cc(-c4cnn(C)c4)c(F)cc3cn2)CC1` [Compound 966, N-(7-Fluoro-6-(1-methyl-1H-pyrazol-4-yl)isoquinolin-3-yl)-1-methylpiperidine-4-carboxamide], the 50% effective concentration (EC50) in [1] was 1590 nM; in [2], 2 nM; on recombinant GSK3β kinase, 32 nM; in test [3], 236 nM; in test [4] it was 259 nM; in [5], 14 nM. In addition, the EC50 with TNFα came out at 60 nM; with IL-6 [7], 22 nM; in the test with KC-GRO, 71 nM.

In the case of `Cn1cc(-c2ccc3cnc(NC(=O)C4CCN(CC(C)(C)O)CC4)cc3c2)cn1` [Compound 1006, 1-(2-Hydroxy-2-methylpropyl)-N-(6-(1-methyl-1H-pyrazol-4-yl)isoquinolin-3-yl)piperidine-4-carboxamide], the EC50 in test [1] was found to be 704 nM; in test [2], 3 nM; on recombinant GSK3β kinase it was 50 nM; in test [3] it was 296 nM; in test [4], 584 nM; in test [5], 61 nM. In addition, the 50% effective concentration (EC50) was determined as 1130 nM in the test with IL-6 [6], 24 nM with TNFα, 11 nM in the test with IL-6 [7] and 27 nM with KC-GRO.

`Cc1ncc(-c2ccc3cnc(NC(=O)[C@H]4CC[C@H](N(C)C)CC4)cc3c2)o1` [Compound 1017, trans-4-(dimethylamino)-N-(6-(2-methyloxazol-5-yl)isoquinolin-3-yl)cyclohexane-1-carboxamide]: the concentration giving a half-maximal response (EC50) in [1] is 621 nM; in [2], 3.1 nM; at recombinant GSK3β kinase, 76 nM; in [3] it was 320 nM; in test [4], 659 nM; in [5] it was 97 nM. Besides, the EC50 with IL-6 [6] amounted to 655 nM; in the test with TNFα it was 29 nM; with IL-6 [7] it was 24 nM; in the test on KC-GRO, 22 nM.

For the compound `Cc1nnc(-c2ccc3cnc(NC(=O)C4CCN(CC(C)C)CC4)cc3c2)o1` [Compound 1020, 1-Isobutyl-N-(6-(5-methyl-1,3,4-oxadiazol-2-yl)isoquinolin-3-yl)piperidine-4-carboxamide], the concentration giving a half-maximal response (EC50) in [1] was 1140 nM; in test [2] it was 10.4 nM; on recombinant GSK3β kinase it was 13 nM; in test [3], 49 nM; in test [4], 1030 nM; in [5], above 10000 nM. In addition, the concentration giving a half-maximal response (EC50) with IL-6 [6] is 1180 nM; in the test on TNFα, 597 nM; with IL-6 [7], 87 nM; in the test with KC-GRO it was 708 nM. Further, the inhibition at 10 µM in test [5] (setting [8]) worked out at 30.6%.

For the origin of these results see US10287267B2, “Isoquinolin-3-yl carboxamides and preparation and use thereof” (Samumed, LLC, priority 2016, dated 2019).
